Data taken from patent publication US20030134859A1 (SANKYO COMPANY, LIMITED, priority 2000, published 2003).

What was measured:
[1] = tested on: Mouse preadipocyte strain 3T3-L1; experiment: Inhibition of differentiation as an indication of acetic acid uptake; type: cell-based; conditions: control (0.01% dimethylsulfoxide) = 100%; for activity at 0.1 µM: Mus musculus, 3T3-L1, 0.1 μM test substance, read-out: Rate of Uptake (%) of [2-14C] acetic acid
In short: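 Differentiation is indexed by 1 hr [2-14C]acetic acid incorporation, measured by scintillation counting and given as uptake relative to 0.01% DMSO control (100%). Mouse 3T3-L1 preadipocytes, pre-grown 10 days, received 0.1 μM test substance throughout a 4-day insulin/IBMX/dexamethasone induction, followed by 2 days' maintenance culture.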

[2] = tested on: human colon cancer cells COL-2-JCK; experiment: Inhibition of colony forming activity in human colon cancer cells; type: cell-based; conditions: 1 μM test compound, 10 days, sum of colony areas vs control; for inhibition at 1 µM: Homo sapiens, 240 h, read-out: Inhibition Rate (%) against the colony forming activity
In short: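 COL-2-JCK cells seeded at 300 cells/well and grown 10 days at 37 °C, 5% CO2 with compound at 1 μM final (0.1% DMSO). Colonies stained with crystal violet in formalin; inhibition % = (1 − treated/control colony area)×100.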

Compound	activity at 0.1 µM [1] [%]	inhibition at 1 µM [2] [%]	Rate of Uptake (%) of [2-14C] acetic acid ([1]; 0.1 μM test substance) [%]	Inhibition Rate (%) against the colony forming activity [2] [%]
Cc1ccccc1-c1csc(NC(=O)c2cc([N+](=O)[O-])ccc2Cl)n1 [Example 39, N-[4-(2-Methylphenyl)thiazol-2-yl]-(2-chloro-5-nitrophenyl)carboxamide]	62.5	48	–	–
Cc1cccc(-c2csc(NC(=O)c3cc([N+](=O)[O-])ccc3Cl)n2)c1 [Example 40, N-[4-(3-Methylphenyl)thiazol-2-yl)-(2-chloro-5-nitrophenyl)carboxamide]	45.3	35	–	–
O=C(Nc1nc(-c2cccc3ccccc23)cs1)c1cc([N+](=O)[O-])ccc1Cl [Example 41, N-[4-(1-Naphthyl)thiazol-2-yl]-(2-chloro-5-nitrophenyl)carboxamide]	53.8	55	–	–
CCc1ccc(-c2csc(NC(=O)c3cc([N+](=O)[O-])ccc3Cl)n2)cc1 [Example 44, N-[4-(4-Ethylphenyl)thiazol-2-yl]-(2-chloro-5-nitrophenyl)carboxamide]	67.6	35	–	–
Cc1nc(NC(=O)c2cc([N+](=O)[O-])ccc2Cl)sc1C [Example 47]	63.1	18	–	–
Cc1cccc(NC(=O)c2cc([N+](=O)[O-])ccc2Cl)n1 [Example 51, N-(6-Methylpyridin-2-yl)-(2-chloro-5-nitrophenyl)carboxamide]	57.5	15	–	–
Cc1ccc(NC(=O)c2cc([N+](=O)[O-])ccc2Cl)nc1 [Example 52, N-(5-Methylpyridin-2-yl)-(2-chloro-5-nitrophenyl)carboxamide]	52.3	17	–	–
O=C(Nc1cccc2cccnc12)c1cc([N+](=O)[O-])ccc1Cl [Example 57, N-(8-Quinolinyl)-(2-chloro-5-nitrophenyl)carboxamide]	58.4	5	–	–
O=C(Nc1ccc(S(=O)(=O)Nc2nccs2)cc1)c1cc([N+](=O)[O-])ccc1Cl [Example 96, N-[4-(Thiazol-2-yl)aminosulfonyl]phenyl-(2-chloro-5-nitrophenyl)carboxamide]	98.7	17	–	–
O=C(Nc1ccc(S(=O)(=O)Nc2ccc(Cl)nn2)cc1)c1cc([N+](=O)[O-])ccc1Cl [Example 102, N-[4-[(6-Chloropyridazin-3-yl)aminosulfonyl]phenyl]-(2-chloro-5-nitrophenyl)carboxamide]	76.8	26	–	–
N-[4-(Pyrrolidinylsulfonyl)phenyl]-(2-chloro-5-nitrophenyl)carboxamide [Example 152]	–	–	69.6	24.0
